test: logP determination by HPLC on a reversed-phase column (C 18), EEC Directive 79/831 Annex V.A8; details: not given
Method: Temperature: 40° C.; Mobile phases: 0.1% aqueous formic acid and acetonitrile; linear gradient from 10% acetonitrile to 90% acetonitrile.

Structure (SMILES)	LogP
Cc1nnnn1C(=NOCc1nsc(N)n1)c1cccc(Cl)c1 [Compound 65, O-(5-Amino-1,2,4-thiadiazol-3-yl)methyl-(3-chlorophenyl-5-methyltetrazol-1-yl)methanone oxime]	2.17

same assay, conditions: HPLC reversed-phase C18, 40° C., 0.1% aqueous formic acid and acetonitrile, gradient 10% to 90% acetonitrile

Structure (SMILES)	LogP
Cc1nnnn1C(Cc1ccccc1)=NOCc1csc(NC(=O)C2CC2)n1 [Compound 1]	2.56
CCCC(=O)Nc1nc(CON=C(Cc2ccccc2)n2nnnc2C)cs1 [Compound 2]	2.73
Cc1nnnn1C(Cc1ccccc1)=NOCc1csc(NC(=S)NCc2ccccc2)n1 [Compound 3]	3.64
Cc1nnnn1C(Cc1ccccc1)=NOCc1csc(NC(=O)NC(C)(C)C)n1 [Compound 4]	2.91
CCCCCNC(=O)Nc1nc(CON=C(Cc2ccccc2)n2nnnc2C)cs1 [Compound 5]	3.18
Cc1nnnn1C(Cc1ccccc1)=NOCc1csc(NC(=O)Cc2ccccc2)n1 [Compound 6]	3.06
Cc1nnnn1C(Cc1ccccc1)=NOCc1csc(NC(=O)C(C)(C)C)n1 [Compound 7]	3.15
CCCCCC(=O)Nc1nc(CON=C(Cc2ccccc2)n2nnnc2C)cs1 [Compound 8]	3.3
Cc1nnnn1C(Cc1ccccc1)=NOCc1csc(NC(=O)CCCc2ccccc2)n1 [Compound 9]	3.61
Cc1nnnn1C(Cc1ccccc1)=NOCc1csc(NC(=O)C2CCCC2)n1 [Compound 11]	3.18
CCCCCC(=O)Nc1cccc(CON=C(CCc2ccccc2)n2nnnc2C)n1 [Compound 17]	3.84
COc1ccc(C(=O)Nc2cccc(CON=C(C3CCCCC3)n3nnnc3C)n2)cc1 [Compound 24]	3.99
COc1ccc(OC(=O)Nc2cccc(CON=C(C3CCCCC3)n3nnnc3C)n2)cc1 [Compound 26]	4.16
CCCCCOC(=O)Nc1cccc(CON=C(C2CCCCC2)n2nnnc2C)n1 [Compound 29]	5
Cc1nnnn1C(=NOCc1cccc(NC(=O)C(C)(C)C)n1)C1CCCCC1 [Compound 30]	3.96
CCCC(=O)Nc1cccc(CON=C(C2CCCCC2)n2nnnc2C)n1 [Compound 33]	3.55
COCCNC(=O)Nc1cccc(CON=C(C2CCCCC2)n2nnnc2C)n1 [Compound 38]	2.78

Structure (SMILES)	LogP
Cc1nnnn1C(=NOCc1cccc(N)n1)C1CC1 [Compound 41]	0.87
Cc1nnnn1C(=NOCc1cccc(NC(=O)NCCc2ccc(F)cc2)n1)C1CC1 [Compound 44]	2.5
Cc1nnnn1C(=NOCc1cccc(NC(=O)NC2CC2)n1)C1CC1 [Compound 46]	1.88
Cc1nnnn1C(=NOCc1cccc(NC(=O)C2CC2)n1)C1CC1 [Compound 48]	2.11
CCCNC(=O)Nc1cccc(CON=C(C2CC2)n2nnnc2C)n1 [Compound 50]	2.09
COc1ccc(CCNC(=O)Nc2cccc(CON=C(C3CC3)n3nnnc3C)n2)cc1 [Compound 51]	2.44
Cc1ccc(C(=NOCc2nsc(N)n2)c2nnnn2C)cc1 [Compound 68]	2.07
Cc1ccc(C(=NOCc2nsc(NC(=O)Cc3ccccc3)n2)c2nnnn2C)cc1 [Compound 69]	3.22
CCCCCC(=O)Nc1cccc(CON=C(c2nnnn2C)C2CCCCC2)n1 [Compound 71]	4.25
Cn1nnnc1C(=NOCc1cccc(NC(=O)C2CC2)n1)C1CCCCC1 [Compound 73]	3.2
Cn1nnnc1C(=NOCc1cccc(NC(=O)C(F)(F)F)n1)C1CCCCC1 [Compound 76]	3.69
Cn1nnnc1C(=NOCc1nccc(N)n1)c1ccccc1 [Compound 77]	0.92
CCCCCC(=O)Nc1ccnc(CON=C(c2ccccc2)c2nnnn2C)n1 [Compound 78]	3.46
Cn1nnnc1C(=NOCc1nccc(NC(=O)C(C)(C)C)n1)c1ccccc1 [Compound 79]	3.06
Cn1nnnc1C(=NOCc1nccc(NC(=O)C2CC2)n1)c1ccccc1 [Compound 80]	2.5
CC(C)C(=O)Nc1ccnc(CON=C(c2ccccc2)c2nnnn2C)n1 [Compound 81]	2.68
CC(C)CC(=O)Nc1ccnc(CON=C(c2ccccc2)c2nnnn2C)n1 [Compound 82]	3

same assay, conditions: reversed-phase C18 HPLC column

chromatographic logP	Structure (SMILES)
3.46	Cc1nnnn1/C(=N/OCc1cccc(N2C(=O)c3ccccc3C2=O)n1)C1CCCCC1 [Compound 22, O-(2-Phtalimidopyridin-6-yl)methyl-(5-methyltetrazol-1-yl)-cyclohexylmethanone oxime]
1.43	Cc1nnnn1/C(=N/OCc1cccc(N)n1)C1CCCCC1 [Compound 23, O-(2-Aminopyridin-6-yl)methyl-(5-methyltetrazol-1-yl)-cyclohexylmethanone oxime]
4.39	CCCCCC(=O)Nc1cccc(CO/N=C(\C2CCCCC2)n2nnnc2C)n1 [Compound 27, O-(2-n-Pentylcarbonylaminopyridin-6-yl)methyl-(5-methyltetrazol-1-yl)-cyclohexylmethanone oxime]

— US8119646B2, “Fungicide hydroximoyl-tetrazole derivatives” (Bayer CropScience AG, priority 2006, dated 2012)
